# Patent publication US5587374A, “10(1-hydroxyethyl)-11-oxo-1-azatricyclo/7.2.0.0.^3.8/ undec-2-ene-2-carboxylic acid esters and a process for preparing thereof” (Glaxo SpA, priority 1990, dated 1996)
# Columns and labels:
# E. Coli = experiment: protection tests using mice, orally administered compounds (E. Coli); assay type: in vivo, mice infected with E. Coli; settings: Escherichia coli, oral, protection test
# Staph. aureus = experiment: protection tests using mice, orally administered compounds (Staph. aureus); settings: Staphylococcus aureus, in Mus musculus, po, read-out: ED50 Staph. aureus
# [1] = oral administration to mice, adverse effects; assay type: in vivo; settings: orally administered, doses up to 1000 mg/kg
# From the text: The compounds of the invention are also essentially non-toxic at therapeutically useful dose levels.
Compound,ED50 (E. Coli),ED50 (Staph. aureus),adverse effects [1]
"CO[C@H]1CCC[C@H]2C1=C(C(=O)OC(C)OC(=O)OC(C)C)N1C(=O)[C@H]([C@@H](C)O)[C@@H]21 (stereo partly drawn) [Example 3, 1-(Isopropyloxycarbonyloxy)ethyl (4S,8S,9R,10S,12R)-4-methoxy-10-(1'-hydroxyethyl)-11-oxo-1-azatricyclo-[7.2.0.0^3,8]undec-2-ene-2-carboxylate]",< 1 mg/kg,< 1 mg/kg,–
"CO/N=C(\C(=O)N[C@@H]1C(=O)N2C(C(=O)OC(C)OC(C)=O)=C(COC(N)=O)CS[C@H]12)c1ccco1 (stereo partly drawn) [Cefuroxime axetil, cefuroxime axetil, reference compound]",26 mg/kg,6 mg/kg,–
"CO[C@H]1CCC[C@H]2C1=C(C(=O)OC(C)OC(=O)OC1CCCCC1)N1C(=O)[C@H]([C@@H](C)O)[C@@H]21 (stereo partly drawn) [Example 1, 1-(Cyclohexyloxycarbonyloxy)ethyl (4S,8S,9R,10S,12R)-4-methoxy-10-(1'-hydroxyethyl)-11-oxo-1-azatricyclo-[7.2.0.0^3,8]undec-2-ene-2-carboxylate]",< 1 mg/kg,< 1 mg/kg,no adverse effects were observed
"CO[C@H]1CCC[C@H]2C1=C(C(=O)OCOC(=O)C(C)(C)C)N1C(=O)[C@H]([C@@H](C)O)[C@@H]21 [Example 10, [(1,1-Dimethyl-ethyl)carbonyloxy]methyl (4S,8S, 9R, 10S, 12R) -4-methoxy-10-(1'-hydroxyethyl)-11-oxo-1-azatricyclo[7.2.0.0^3,8]undec-2-ene-2-carboxylate]",< 1 mg/kg,< 1 mg/kg,–
